Data from patent US20250170027A1, “COLLAGEN CROSS-LINKER AND USES THEREOF” (The Curators of the University of Missouri, priority 2022, published 2025).
Each block holds one compound with its values, some of them ahead of it.

Legend:
[1] = tested on: Clostridium histolyticum collagenase; conditions: after 1 hour incubation at 37° C.; 0.2 U/ml collagenase; EDTA 5 mM; FIG. 3
Experimental: The direct inactivation of collagenase by TRI was also determined using a collagenase assay kit. Assays were performed in 96-well microplates with 0.2 U/ml Clostridium histolyticum collagenase incubated with the treatment solutions for up to 24 h according to the manufacturer's instructions. The well-known collagenase inhibitor 5 mM EDTA was used as a positive control. A group without any treatment was included as a negative control. The fluorescence of kinetic of inactivation was monitored at 1, 2, 4, 16 and 24 h of incubation at 37° C. in triplicate at 490 nm/520 nm. Fluorescence at the different time points was determined by subtracting background fluorescence. The collagenase activity was expressed in arbitrary fluorescence units. Then, the activity was calculated in percentage of inhibition according to the untreated negative control (presumed 100% collagenase activity) after 4 h of incubation. Statistical analysis was performed by one-way ANOVA and Games Howell's post hoc (α=0.05).

[2] = tested on: L929 cells; format: cell-based; conditions: dentin disks treated 1 min; 1 or 3 days exposure; FIGS. 6, 7
Experimental: (§1) The cells were seeded onto 24 and 96-well plates at a density of 2×10^4 cells/cm^2 and incubated at 37° C. in 5% CO2 and 95% relative humidity until the monolayer cells spread over the bottom of the wells.
Twenty-four teeth were sectioned obtaining 24-dentin disks (approximately 6-mm in diameter). The dentin disks were superficially etched using 32% phosphoric acid gel for 15 s on each side, rinsed thoroughly and placed in 100 μL of treatment solutions. After 1 min of treatment, the treated dentin disks were rinsed in sterile distilled water for 30 s. Treated dentin disks were immediately placed on a permeable polycarbonate membrane insert (6.5 mm in diameter, 3.0 μm pore size) above of cultured cells and covered with 100 μL of medium. After incubation, cell viability assay was used to stain live cells with calcein-AM and dead cells with ethidium homodimer. To distinguish overlapped cells in cell counting, Hoechst 33342 was used as a cell-permeant nuclear counterstain, following the guidelines specified by the manufacturer. Cells were imaged using a fluorescent High Content Microscope with 20× magnification. Cell counting was performed using ImageJ (NIH Image J1.8.0). The percentage of cell proliferation and dead cells were statistically compared to 1-day control using one-way ANOVA and Dunnett's test (α=0.05).

[3] = tested on: L929 cells; assay: Effect of direct treatment on cell proliferation (MTS assay); format: cell-based; conditions: treatment solutions diluted 1:1000, 1:2000, 1:4000 (v/v) in culture medium; FIG. 5
Experimental: as §1
The direct treatments were conducted on 96-well plates with replacement of original culture medium with culture medium containing different diluted treatment solutions at ratios of 1:1000, 1:2000 and 1:4000 (v/v) and a control group containing only original culture medium. Cell proliferation was assessed with the MTS assay CellTiter 96 AQueous One Solution Cell Proliferation Assay following protocol guidelines specified by the manufacturer. Absorbance was measured using a multimode microplate reader at 460/30 nm at 2 h after addition of MTS reagent. Statistical analysis was performed using a two-way ANOVA for each used concentration followed by Tukey's post hoc (α=0.05).

[4] = tested on: dentin collagen; assay: Biodegradation of dentin collagen by exogenous collagenase (weight loss, HYP release); format: biochemical, human; conditions: crosslinker 0.6 wt % in EtOH, 60 s or 1 h treatment; 0.1% collagenase 1 h at 37° C.; FIG. 2A
Experimental: Following the treatment and rinse, the dentin collagen films were dried (48 h under vacuum) and then exposed to 0.1% collagenase (type I, from Clostridium histolyticum, ≥125 U/mg) degradation for 1 h at 37° C. (n=6×10 films per group). The remnant films were dried as previously described and compared the weight percent before and after collagenase digestion for weight loss analysis (WL). The digestion solution was collected and processed to quantify the amount of HYP released. This processing comprised exposure to 5% Ehrlich's reagent, which binds to HYP and produces a colored solution, the color intensity of which is proportional to the concentration of HYP. Colorimetry was performed by measuring the absorbance at 555 nm in a microplate reader, thereby calculating the HYP μg/mg of collagen during digestion. […] All data for weight loss are separately shown after […] for each sample.

[5] = tested on: mammalian collagen; assay: Application of crosslinkers to mammalian collagen (biostability, general statement); conditions: application of any one of the crosslinkers to mammalian collagen

Compound: O=C(O)CN(CCN(CC(=O)O)CC(=O)O)CC(=O)O [EDTA, ethylenediaminetetraacetic acid]
collagenase inhibition [1]: some collagenase inhibition

Compound: O=CCCCC=O [GA, glutaraldehyde]
cytotoxic effect on L929 cells [2]: cytotoxic | cell proliferation (MTS absorbance) compared to the control sample [3]: high cytotoxicity

weight % change (weight loss) before and after collagenase digestion [4]: not faring much better
Compound: COC(=O)C1=CO[C@@H](O)[C@@H]2C(CO)=CC[C@H]12 [GEN, genipin]

weight % change (weight loss) before and after collagenase digestion [4]: not faring much better
Compound: O=c1c(O)c(-c2ccc(O)c(O)c2)oc2cc(O)cc(O)c12 [QC, quercetin]

Compound: O=C(NCCc1ccc(O)c(O)c1)c1cc(C(=O)NCCc2ccc(O)c(O)c2)cc(C(=O)NCCc2ccc(O)c(O)c2)c1 [TRI-1]
biostability of mammalian collagen [5]: improves the biostability

Compound: O=C(O)c1cc(C(=O)NCCc2ccc(O)c(O)c2)cc(C(=O)NCCc2ccc(O)c(O)c2)c1 [TRI-2]
biostability of mammalian collagen [5]: improves the biostability

Compound: CCOC(=O)c1cc(C(=O)NCCc2ccc(O)c(O)c2)cc(C(=O)NCCc2ccc(O)c(O)c2)c1 [TRI-3]
biostability of mammalian collagen [5]: improves the biostability
